Results from patent US20080261895A1 (Wyeth, priority 2006, published 2008).
Several values for one entry are separate records, joined by “and”; a condition that tells them apart may be missing. Equal values may be shown once. Marks after values point to notes of the source that are not given here.

Key:
[1] = Fecal excretion and metabolite profile by radiochromatography, dogs; type: in vivo, beagle dogs; conditions: single oral 30 mg/kg
Experimental: (§1) For each dog, urine and feces were collected separately, with urine collected on dry ice and feces collected at room temperature. Collections were from 0-8 and 8-24 hours for urine and 0-24 hours for feces. Urine and fecal samples were shipped on dry ice to Wyeth Research, Biotransformation Division (Collegeville, Pa.) for analysis. Fecal samples were homogenized in approximately five volumes (v/w) of water. Aliquots of approximately 0.2 grams of the homogenate were placed into combusto-cones, weighed and allowed to air dry. These samples were then oxidized and radioactivity content determined. The remaining urine samples and fecal homogenates were stored at −70° C. until metabolite analysis. Blood samples and fecal homogenates were oxidized in a Model 307 Tri-Carb sample oxidizer, using Carbosorb® E (6 mL) as trapping agent and PermaFluor® E^+ (10 mL) as scintillant. The background reading (average of control blood or fecal samples) was subtracted from each sample reading. Aliquots of urine and plasma were analyzed directly following the addition of 10 mL of Ultima Gold™ scintillation fluid.
Fecal homogenates collected up to 24 hours post-dose were analyzed for metabolite profiles. Aliquots of approximately 2 grams of fecal homogenate were transferred to a fresh tube, an equal volume of acetonitrile (v/w) was added, and the tube vortexed. Samples were then centrifuged at 14000 rpm in an Eppendorf Model 5415C centrifuge for 10 minutes. The supernatant was transferred to a clean tube. The residue was re-suspended with 1 mL acetonitrile and centrifuged as described above. The resulting supernatant was combined with the original supernatant and analyzed for radioactivity. The supernatants were then concentrated under a stream of nitrogen in a Turbo Vap to remove the acetonitrile. An aliquot of the aqueous residue was analyzed by HPLC for profiling. Selected samples were also analyzed by LC/MS to characterize the radioactive peaks.
(§2) Chromatographic analyses were performed with a Waters Alliance model 2690 HPLC system (Waters Corp., Milford, Mass.). It was equipped with a built-in autosampler and was in-line with a model 2487 tunable UV detector, set to monitor 225 nm, and a FloOne β Model 515 radioactivity flow detector (Perkin Elmer) with a 250 μL LQTR flow cell. The flow rate of Ultima Flow M scintillation fluid was 3 mL/min, providing a mixing ratio of scintillation cocktail to mobile phase of 3:1. Separation of the metabolite peaks was accomplished on a Phenomenex Luna C18(2) column, 250×4.6 mm, 5 micron (Phenomenex, Torrance, Calif.), using a linear gradient of two mobile phases, A and B. Mobile phase A was 10 mM ammonium acetate, pH 5.5, and mobile phase B was acetonitrile. The flow rate was 1 mL/min.

[2] = system: norepinephrine levels in the brains; assay: Norepinephrine levels in the brains of rats; type: in vivo; conditions: 30 mg/kg (free base), administered subcutaneously, male Sprague Dawley rats
[3] = Urinary excretion and metabolite profile by radiochromatography, dogs; type: in vivo, beagle dogs; conditions: single oral 30 mg/kg
Experimental: as §1
Urine samples collected between 8 and 24 hours post-dose were analyzed for metabolite profiles. Aliquots of urine were centrifuged at 14000 rpm in an Eppendorf Model 5415C centrifuge for 10 minutes. The supernatant was transferred to a fresh tube and analyzed for radioactivity content and by HPLC for metabolite profiling. Selected samples were also analyzed by LC/MS to characterize the radioactive peaks.
as §2

[4] = system: dog liver microsomes; assay: Glucuronidation in dog liver microsomes; type: in vitro ADME; conditions: dog liver microsomes 1 mg/mL, 100 μM, 30 minutes; in the presence of only UDPGA
Experimental: To confirm the site of glucuronidation of DVS, incubations were performed using dog liver microsomes. These incubations compared the glucuronidation of DVS to venlafaxine. […] Reactions were initiated by the addition of UDPGA (final concentration 1 mM). An additional set of incubations was performed for venlafaxine with UDPGA and an NADPH generating system. […] Reactions were stopped by the addition of 500 μL of acetonitrile and processed as described above. Samples were analyzed by LC/MS.

[5] = Stability of [14C]DVS in control dog urine; type: in vitro ADME; conditions: 37° C., up to 24 hours
Experimental: The stability of [^14C]DVS in dog urine was determined. [^14C]DVS (0.025 mg/mL, final concentration) was added to control dog urine and incubated in a shaking water bath set to 37° C. Aliquots (1 mL) were removed at 0, 1, 4, 8 and 24 hours. Samples were extracted as described above and radiopurity assayed by HPLC analysis.

[6] = includes 0-8 and 8-24 hour time points, 30 mg/kg

Compounds Detected by Radiochromatography in feces, percent of total peaks, individual dogs ([1]; feces 0-24 hours post dose (dog 7 until 48 hours), average of 2 analyses): 78.6% and 50.6% and 85.7% and 88.8%
Radioactivity as % of Dose in feces, individual dogs ([1]; feces 0-24 hours post dose (dog 7 until 48 hours), listed as [^14C]DVS): 4.4% and 0.3% and 4.0% and 3.3%
Compounds Detected by Radiochromatography in feces, percent of total peaks, Mean ± S.D. ([1]; feces 0-24 hours post dose): 76% and 75.9 ± 17.4%
Radioactivity as % of Dose in feces, Mean ± S.D. ([1]; feces 0-24 hours post dose): approximately 3%
Radioactivity as % of Dose in feces, Mean ± S.D. ([1]; feces 0-24 hours post dose, listed as [^14C]DVS): 3.0 ± 1.9%
Radioactivity as % of Dose in urine, Mean ± S.D. [3, 6]: 74.8 ± 13.0^b %
Radioactivity as % of Dose in urine, individual dogs [3, 6]: 85.4% and 63.0% and 86.6% and 64.0%
Radioactivity as % of Dose in urine, Mean ± S.D. ([3]; includes 0-8 and 8-24 hour time points, listed as [^14C]DVS, 30 mg/kg): 75%
Compounds Detected by Radiochromatography in urine, percent of total peaks, Mean ± S.D. ([3]; urine 8-24 hours post-dose): 5.8 ± 1.6%
Compounds Detected by Radiochromatography in urine, percent of total peaks, individual dogs ([3]; urine 8-24 hours post-dose, mean of 2 analyses, 30 mg/kg): 7.9% and 5.7% and 5.4% and 4.0%
glucuronidation [4]: observed
Stability of [14C]DVS in control dog urine [5]: stable
Compound: CN(C)CC(c1ccc(O)cc1)C1(O)CCCCC1.O=C(O)CCC(=O)O (stereo not shown) [DVS, O-desmethylvenlafaxine succinate]
norepinephrine levels in the brains [2]: significantly increased
